Source: patent US20110262895A1, “METHODS FOR THE DIAGNOSIS OF VARICELLA ZOSTER VIRUS INFECTION” (priority 2008, published 2011)

Experiments:
CMV = settings: cited from earlier work
VZV = settings: requires VZV thymidine kinase for phosphorylation; cited from earlier work
HSV = settings: cited from earlier work
[1] = test system: varicella-zoster virus (VZV) DNA in saliva; experiment: Salivary VZV DNA by real-time PCR in herpes zoster patients treated with valacyclovir; format: in vivo, human; settings: oral valacyclovir 1 g 3 times daily for 7 days, 50 patients with follow-up
Protocol: Methods. All human-study protocols were approved by the Committee for the Protection of Human Subjects of the Lyndon B. Johnson Space Center (control subjects) and by the Institutional Review Board of the University of Texas Health Sciences Center (patients with herpes zoster). Informed consent was obtained from all subjects. The 54 patients with herpes zoster consisted of 29 women (21-82 years old) and 25 men (35-79 years old) (Table 2). All patients with herpes zoster were treated with oral valacyclovir (1 g 3 times daily) for 7 consecutive days. Pain was described by all patients on a scale of 0 (no pain) to 10 (worst pain) (Jacox et al., 1994). […]
Saliva samples from all subjects were obtained by having subjects suck on a cotton plug for 1-2 min, after which the saturated cotton was placed in a salivette tube (Sarstedt). […] Quantitative real-time polymerase chain reaction (PCR) was performed in a TaqMan 7700 sequence detector (Applied Biosystems) using fluorescence-based simultaneous amplification and product detection.
Primers and probes specific for VZV, herpes simplex virus (HSV)-1 and GAPDH DNA sequences have been described elsewhere (Mehta et al., 2004; Cohrs et al., 2000). […] At the height of CPE, cells were analyzed by PCR with HSV-1-specific and VZV-specific primers (Mehta et al., 2004; Cohrs et al., 2000) and by immunohistochemistry for viral antigens.

[2] = Pain score (0-10) in herpes zoster patients treated with valacyclovir; format: in vivo, human; settings: oral valacyclovir 1 g 3 times daily for 7 days, 50 patients with follow-up
Protocol: Methods. All human-study protocols were approved by the Committee for the Protection of Human Subjects of the Lyndon B. Johnson Space Center (control subjects) and by the Institutional Review Board of the University of Texas Health Sciences Center (patients with herpes zoster). Informed consent was obtained from all subjects. The 54 patients with herpes zoster consisted of 29 women (21-82 years old) and 25 men (35-79 years old) (Table 2). All patients with herpes zoster were treated with oral valacyclovir (1 g 3 times daily) for 7 consecutive days. Pain was described by all patients on a scale of 0 (no pain) to 10 (worst pain) (Jacox et al., 1994). Six control subjects consisted of 5 women (24-64 years old) and 1 person with chronic pain due to malignancy or non-VZV inflammatory disease. Fourteen additional healthy control subjects consisted of 9 men and 5 women (34-70 years old). Three saliva samples were collected at weekly intervals from all 6 control subjects with chronic pain and from the 14 healthy control subjects.

| Structure (SMILES) | activity against CMV (CMV) | activity against VZV (VZV) | activity against HSV (HSV) | patients in whom VZV DNA disappeared from saliva ([1]; 2-week study period) [%] | patients in whom virus DNA copy numbers decreased in saliva ([1]; 14-day study period) [%] | patients in whom pain decreased ([2]; 14-day study period) [%] | patients in whom pain disappeared ([2]; end of 2-week study period) [%] |
| --- | --- | --- | --- | --- | --- | --- | --- |
| CC#Cc1cn([C@@H]2O[C@H](CO)[C@@H](O)[C@@H]2O)c(=O)[nH]c1=O [882C] | without any significant activity | specific activity against VZV | without any significant activity | – | – | – | – |
| CC(C)[C@H](N)C(=O)OCCOCn1cnc2c(=O)[nH]c(N)nc21 [valacyclovir] | – | – | – | 82 | 94 | 86 | 74 |
